Common to all, as to conditions: 500 μM ATPγS vs none; normal (aerated) culture lysate; competitive
Experiment [1] has as its target ATP-dependent protease ATP-binding subunit, ClpC1 (Mycobacterium tuberculosis, UniProt P9WPC9).
The target in experiment [2] is Phosphoglycerate kinase, Pgk (Mycobacterium tuberculosis, UniProt P9WID1).
In another experiment the target is Adenylate kinase, Adk (Mycobacterium tuberculosis, UniProt P9WKF5).
For the next experiment, the target named is Universal stress protein (Mycobacterium tuberculosis, UniProt P9WLB5).
Chain of Universal stress protein (P9WLB5 whole entry): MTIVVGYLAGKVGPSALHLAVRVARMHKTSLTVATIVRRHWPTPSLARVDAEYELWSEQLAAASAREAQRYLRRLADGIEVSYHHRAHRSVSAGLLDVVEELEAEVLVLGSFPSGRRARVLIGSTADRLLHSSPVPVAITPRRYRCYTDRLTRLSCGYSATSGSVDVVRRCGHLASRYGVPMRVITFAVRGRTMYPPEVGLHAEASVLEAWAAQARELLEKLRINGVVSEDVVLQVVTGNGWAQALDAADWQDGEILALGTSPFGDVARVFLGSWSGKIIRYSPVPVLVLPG
In experiment [3] the target is Polyphosphate kinase, Ppk (Mycobacterium tuberculosis, UniProt P9WHV9).
Chain of Polyphosphate kinase, Ppk (P9WHV9 whole entry): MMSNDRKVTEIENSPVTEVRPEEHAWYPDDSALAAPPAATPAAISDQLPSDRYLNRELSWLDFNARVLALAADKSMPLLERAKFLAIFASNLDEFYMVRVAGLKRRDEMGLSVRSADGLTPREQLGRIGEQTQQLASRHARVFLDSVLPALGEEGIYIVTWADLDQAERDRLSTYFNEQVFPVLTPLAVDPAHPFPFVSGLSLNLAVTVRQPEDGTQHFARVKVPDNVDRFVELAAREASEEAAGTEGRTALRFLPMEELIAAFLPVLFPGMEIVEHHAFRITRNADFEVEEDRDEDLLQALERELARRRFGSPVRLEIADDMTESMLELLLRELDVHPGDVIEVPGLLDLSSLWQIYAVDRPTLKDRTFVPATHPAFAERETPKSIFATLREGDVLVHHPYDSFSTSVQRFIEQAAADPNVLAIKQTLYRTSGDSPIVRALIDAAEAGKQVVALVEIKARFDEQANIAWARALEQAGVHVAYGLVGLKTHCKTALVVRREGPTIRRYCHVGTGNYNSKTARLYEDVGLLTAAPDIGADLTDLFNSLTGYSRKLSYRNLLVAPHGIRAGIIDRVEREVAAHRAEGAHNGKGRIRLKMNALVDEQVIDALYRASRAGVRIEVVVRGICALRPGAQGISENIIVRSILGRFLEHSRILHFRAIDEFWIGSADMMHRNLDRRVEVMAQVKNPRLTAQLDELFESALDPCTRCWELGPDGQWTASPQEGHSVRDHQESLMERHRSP

Chain of ATP-dependent protease ATP-binding subunit, ClpC1 (P9WPC9 whole entry): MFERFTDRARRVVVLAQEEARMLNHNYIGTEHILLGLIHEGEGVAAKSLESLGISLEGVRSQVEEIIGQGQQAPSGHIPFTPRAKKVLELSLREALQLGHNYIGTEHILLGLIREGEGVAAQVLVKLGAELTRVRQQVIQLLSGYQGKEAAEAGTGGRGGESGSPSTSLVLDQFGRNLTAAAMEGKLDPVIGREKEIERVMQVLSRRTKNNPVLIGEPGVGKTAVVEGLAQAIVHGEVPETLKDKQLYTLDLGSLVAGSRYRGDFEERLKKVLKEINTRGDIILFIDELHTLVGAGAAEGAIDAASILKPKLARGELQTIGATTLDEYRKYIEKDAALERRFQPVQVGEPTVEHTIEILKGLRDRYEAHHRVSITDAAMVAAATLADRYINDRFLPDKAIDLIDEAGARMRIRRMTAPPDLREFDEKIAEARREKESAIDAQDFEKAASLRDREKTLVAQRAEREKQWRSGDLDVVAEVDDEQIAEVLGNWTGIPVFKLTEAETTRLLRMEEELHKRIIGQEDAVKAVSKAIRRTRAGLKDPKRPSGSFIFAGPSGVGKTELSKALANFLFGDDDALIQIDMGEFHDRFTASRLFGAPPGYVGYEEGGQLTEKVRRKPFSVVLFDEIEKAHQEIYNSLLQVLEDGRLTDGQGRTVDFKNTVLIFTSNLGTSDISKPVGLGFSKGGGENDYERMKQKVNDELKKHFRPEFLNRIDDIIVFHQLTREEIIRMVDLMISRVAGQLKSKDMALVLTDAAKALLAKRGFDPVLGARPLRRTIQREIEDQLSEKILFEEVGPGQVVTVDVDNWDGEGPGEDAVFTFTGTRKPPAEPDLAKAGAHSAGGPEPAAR
Chain of Phosphoglycerate kinase, Pgk (P9WID1 whole entry): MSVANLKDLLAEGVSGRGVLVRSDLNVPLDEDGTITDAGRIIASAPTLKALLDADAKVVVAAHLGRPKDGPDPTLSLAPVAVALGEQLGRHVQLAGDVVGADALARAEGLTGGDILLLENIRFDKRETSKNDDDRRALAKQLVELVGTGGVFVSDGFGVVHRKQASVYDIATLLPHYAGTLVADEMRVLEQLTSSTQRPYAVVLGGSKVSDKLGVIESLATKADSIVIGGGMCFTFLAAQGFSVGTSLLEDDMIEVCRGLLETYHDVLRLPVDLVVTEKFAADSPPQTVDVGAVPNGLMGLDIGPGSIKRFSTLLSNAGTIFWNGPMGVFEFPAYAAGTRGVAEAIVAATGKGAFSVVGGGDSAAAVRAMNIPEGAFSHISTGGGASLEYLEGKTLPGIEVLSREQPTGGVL
Chain of Adenylate kinase, Adk (P9WKF5 whole entry): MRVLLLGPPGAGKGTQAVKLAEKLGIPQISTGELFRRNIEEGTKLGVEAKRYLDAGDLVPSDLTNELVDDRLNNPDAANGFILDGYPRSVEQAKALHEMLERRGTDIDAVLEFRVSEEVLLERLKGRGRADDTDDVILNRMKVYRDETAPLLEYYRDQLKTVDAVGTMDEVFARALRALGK

As for `Nc1ncnc2c1ncn2[C@@H]1O[C@H](COP(=O)(O)OP(=O)(O)OP(O)(O)=S)[C@@H](O)[C@H]1O` [ATPγS, adenosine 5′-[γ-thio]triphosphate tetralithium], the Fold change in experiment [1] is reported as 3.98 fold; in experiment [2], 6.56 fold; at Adenylate kinase, Adk, 2.12 fold; on Universal stress protein it was 4.75 fold; in experiment [3], 6.80 fold.

The values are drawn from article PMC3675820 (Molecular & Cellular Proteomics : MCP, 2013).
